Laboratory results: patent publication US20220023306A1, “USE OF A PPAR-DELTA AGONIST IN THE TREATMENT OF FATTY ACID OXIDATION DISORDERS (FAOD)” (Reneo Pharmaceuticals, Inc., priority 2019, published 2022)

Experiments:
hPPARα = biological target: T1, hPPARα (Homo sapiens, UniProt Q07869); assay: PPAR transient transactivation assay, hPPARα; format: cell-based
T1 construct: expressed in transfected cells; host or cells: HEK293
T1 sequence (Q07869 239-466 limits assumed): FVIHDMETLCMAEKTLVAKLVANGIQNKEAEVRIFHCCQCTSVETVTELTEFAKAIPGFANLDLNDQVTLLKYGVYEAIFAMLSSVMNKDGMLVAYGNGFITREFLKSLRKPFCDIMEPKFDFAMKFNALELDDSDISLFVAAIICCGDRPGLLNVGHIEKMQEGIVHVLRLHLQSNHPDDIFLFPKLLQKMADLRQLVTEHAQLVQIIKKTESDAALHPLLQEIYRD
Procedure: “Activation” herein is defined as the abovementioned downstream response, which in the case of PPAR's is gene transcription. Gene transcription, in some cases, is measured indirectly as downstream production of proteins reflective of the activation of the particular PPAR subtype under study. Alternatively, an artificial reporter construct, in some cases, is employed to study the activation of the individual PPAR's expressed in cells. The ligand binding domain of the particular receptor to be studied, in some embodiments, is fused to the DNA binding domain of a transcription factor, which produces convenient laboratory readouts, such as the yeast GAL4 transcription factor DNA binding domain. The fusion protein, in some cases, is transfected into a laboratory cell line along with a Gal4 enhancer, which effects the expression of the luciferase protein. When such a system is transfected into a laboratory cell line, binding of a receptor agonist to the fusion protein will result in light emission.
The PPAR transient transactivation assay, in some cases, is based on transient transfection into human HEK293 cells of two plasmids encoding a chimeric test protein and a reporter protein respectively. […] The amount of luciferase protein is measured by light emission after addition of the appropriate substrate. […]

LXRβ = biological target: T2, LXRβ (Homo sapiens, UniProt P55055); assay: activity on nuclear receptor LXRβ; format: cell-based
T2 sequence (P55055 1-460): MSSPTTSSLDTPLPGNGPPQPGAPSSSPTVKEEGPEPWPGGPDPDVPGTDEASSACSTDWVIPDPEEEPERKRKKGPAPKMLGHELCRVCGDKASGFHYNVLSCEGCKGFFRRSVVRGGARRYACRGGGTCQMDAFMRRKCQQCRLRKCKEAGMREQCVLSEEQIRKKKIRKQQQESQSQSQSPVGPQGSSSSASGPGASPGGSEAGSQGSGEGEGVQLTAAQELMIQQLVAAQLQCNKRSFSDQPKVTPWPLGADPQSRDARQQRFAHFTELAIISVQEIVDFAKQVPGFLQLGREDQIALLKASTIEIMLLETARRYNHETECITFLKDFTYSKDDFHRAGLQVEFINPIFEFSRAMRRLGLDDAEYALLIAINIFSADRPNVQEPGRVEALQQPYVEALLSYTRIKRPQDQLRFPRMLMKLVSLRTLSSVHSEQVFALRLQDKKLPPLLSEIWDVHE

[1] = tested on: PPARδ regulated genes (CPT1b, PGC1α); assay: expression of PPARδ regulated genes in vivo

- activity on PPARα in transactivation assays (hPPARα): negligible activity
- type of agonism on PPARα (hPPARα): partial agonist
- activity on LXRβ (LXRβ): did not show any
Compound: Cc1cc(OC/C=C(/c2ccc(F)cc2)c2ccc(C#CCN3CCOCC3)cc2)ccc1OCC(=O)O [Compound 1, (E)-[4-[3-(4-Fluorophenyl)-3-[4-[3-(morpholin-4-yl)propynyl]phenyl]allyloxy]-2-methyl-phenoxy]acetic acid]
- expression pattern of CPT1b (fatty acid metabolism) [1]: altered the expression patterns
- expression pattern of PGC1α (mitochondrial biogenesis) [1]: altered the expression patterns
